Source: publication PMC11376277, “Crystallographic fragment screen of the c-di-AMP-synthesizing enzyme CdaA from Bacillus subtilis” (Acta Crystallographica Section F: Structural Biology …, 2024)

Target: T1, EfCdaA (Enterococcus faecium, UniProt Q3Y0C9)
T1 construct: gene dacA; N-terminally truncated soluble DAC domain; codon-optimized synthetic DNA, pET-28a, E. coli Rosetta (DE3); tag cut with PreScission
T1 sequence (Q3Y0C9 121-269): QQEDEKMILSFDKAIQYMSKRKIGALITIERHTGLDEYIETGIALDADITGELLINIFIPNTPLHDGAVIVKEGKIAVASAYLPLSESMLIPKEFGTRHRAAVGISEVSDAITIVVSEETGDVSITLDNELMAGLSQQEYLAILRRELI
Experiment: ITC, […] binding model
Conditions: 25 C, pH 7.5, 20 mM Tris-HCl, 300 mM NaCl, 5% DMSO, 10 mM MgCl2

SMILES | Kd
Nc1ncnc2c1ncn2[C@@H]1O[C@H](COP(=O)(O)OP(=O)(O)OP(=O)(O)O)[C@@H](O)[C@H]1O [ATP] | 237 µM
CC(C)OC(=O)OCOP(=O)(CO[C@H](C)Cn1cnc2c(N)ncnc21)OCOC(=O)OC(C)C [tenofovir disoproxil] | 7.91 µM
